What all share (test): growth of human tumour cells (NCI), 48 h
In assay [1] the test system is A498 renal.
For assay [2], the system named is DMS 273 small cell lung.
Assay [3] concerns HT29 colon.
Assay [4] deals with LOX IMVI melanoma.
Assay [5] concerns M19-MEL melanoma.
Assay [6] deals with NCI-H460 lung.
Assay [7] has as its system NCI/ADR-RES ovarian.
Assay [8] concerns RXF 393 renal.
Assay [9] concerns UACC-62 melanoma.
The test system of assay [10] is UO-31 renal.

Where “and” joins values, the source holds several entries; their conditions need not be identical. Equal values may be shown once.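 Where inhibition never reached the appropriate level, the endpoint shown equals the highest concentration tested. Otherwise, values were interpolated linearly from a five-concentration, 48-hour dose response in 96-well plates. GI50 marks 50% less growth. TGI: concentration producing complete growth inhibition.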

In the case of `CCCCCCCCCCCCCCCC(=O)OCC1OC(OC)C(NC(=O)N(CCCl)N=O)C(O)C1O` (centres undefined), the TGI in assay [1] is 61.3 µM; in assay [2] it was 25.2 µM; in assay [3] it was 33.7 µM; in [4], 17.5 µM; in assay [5] it was > 89.6 µM; in assay [6] it was 23.1 µM. The TGI worked out at 58.9 µM in assay [7], 32.7 µM in assay [8], 15 µM in assay [9] and 48.9 µM in assay [10].

For `O=C1C(Br)=C(Br)C(=O)c2ccccc21`, the GI50 was 48.5 µM and 13.4 µM in assay [1]; 49.9 µM and 9.23 µM in assay [2]; 16.5 µM and 4.69 µM in [4]; 16.1 µM and 6.98 µM in assay [5]; 32.7 µM and 10.6 µM in [6]; 16.2 µM and 5.85 µM in assay [8]. Also, the GI50 in assay [10] was 13.6 µM and 5.55 µM. The TGI is > 100 µM and 27.1 µM in assay [1]; > 100 µM and 23.5 µM in assay [2]; > 100 µM and 21.8 µM in assay [3]; 31.4 µM and 12.3 µM in [4]; 29.8 µM and 21.7 µM in [5]; > 100 µM and 33.9 µM in assay [6]. The TGI in assay [7] was 66.8 µM; in assay [8], 29.9 µM and 15.6 µM; in assay [9], 31.6 µM and 22.7 µM; in assay [10] it was 26.7 µM and 14.7 µM.

As for `CCOc1ccc(NCC2CC/C(=C\c3ccc(Cl)cc3)C2=O)cc1` (centres undefined), the TGI was > 95.9 µM in assay [1]; > 54.1 µM in assay [2]; > 56.2 µM in assay [3]; 35.4 µM in [4]; > 58.6 µM in [5]; > 100 µM in [6]. Further, the TGI in [8] was > 64.6 µM; in assay [9], > 64.3 µM; in [10] it was > 58.5 µM.

For `COc1cc(C(O)C(=O)c2cnc3cc([N+](=O)[O-])ccc3n2)ccc1O` (centres undefined), the TGI in assay [1], in assay [2], in assay [3], in [4], in assay [5] and in [6] was > 100 µM throughout. Moreover, the TGI in [8], in [9] and in [10] was > 100 µM in each case.

With `CC(=O)OCCOCNC(=S)N/N=C(\C)c1cccs1`, the TGI in [1], in [2], in assay [3], in [4], in [5] and in assay [6] was > 100 µM throughout. The TGI in assay [8], in assay [9] and in assay [10] was > 100 µM in each case.

These data come from PubChem BioAssay (NCI).
